The values that follow come from PubChem BioAssay (NCI).

Common to all, as to assay: inhibition of tumour cell growth, NCI panel, 48 h
Assay [1] has as its system NCI-H460 lung.
The subject of assay [2] is BT-549 breast.
Assay [3] deals with HL-60(TB) leukemia.
The test system of assay [4] is MDA-MB-435.
In assay [5] the test system is SF-539 CNS.
For assay [6], the system named is OVCAR-3 ovarian.
In assay [7] the test system is A549 NSCLC.
Assay [8] relates to SK-MEL-2 melanoma.
Assay [9] deals with SN12C renal.
For assay [10], the system named is TK-10 renal.

Several values for one entry are separate records, joined by “and”; a condition that tells them apart may be missing. Equal values may be shown once.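 Interpolation was linear, between the two tested concentrations surrounding the appropriate level; five concentrations were tested over 48 hours in 96-well plates. At the GI50, growth is halved. Definition used: TGI = concentration required for complete inhibition of growth.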 Where a SMILES comes first, the peptide text is derived from it. Bridges are numbered along the chain shown (N, C = ends). [ ]: non-standard residue; d: D form. aThr = C[C@H](O)[C@H](N)C(=O)O

As for `Nc1nccc(-c2c(-c3ccc(F)cc3)nn3cc(C(F)(F)F)ccc23)n1`, the GI50 in [1], in assay [2], in assay [3], in [4], in assay [5] and in assay [6] was more than 25 µM in each case. In addition, the GI50 in assay [7], in assay [8], in [9] and in assay [10] was more than 25 µM in each case. Besides, the TGI in [1], in assay [2], in assay [3], in [4], in assay [5] and in assay [6] was more than 25 µM each time. Besides, the TGI in assay [7], in [8], in assay [9] and in assay [10] was more than 25 µM each time.

Regarding `C(=Nc1nc(SCc2ccccc2)nc2[nH]ncc12)c1cccs1`, the GI50 is 33.2 µM in [1]; 41 µM in assay [2]; 41.6 µM in assay [4]; 24.8 µM in assay [5]; more than 100 µM in [6]; 60 µM in assay [7]. For the same compound, the figures for the GI50 in assay [8], in assay [9] and in assay [10] were 77.4 µM, more than 100 µM and 44.3 µM, respectively. Also, the TGI in assay [1], in [2], in assay [4], in [5], in assay [6] and in assay [7] was more than 100 µM in each case. Moreover, the TGI in assay [8], in [9] and in assay [10] was more than 100 µM each time.

On to `CC(=O)O[C@H]1CC2C(C3CC[C@H](C(C)CCC(=O)O)[C@]31C)[C@H](OC(C)=O)C[C@@H]1CC3(CC[C@]21C)OOC1(CCC(C)CC1)OO3` (stereo partly drawn), for which the TGI in assay [1] is 16.7 µM and 7.64 µM; in assay [2], 15.1 µM and 7.14 µM; in assay [3] it was 11.2 µM and 4.41 µM; in assay [4] it was 18.7 µM and 7.76 µM; in [5], 20.6 µM and 3.86 µM; in [6] it was 16.4 µM and 5.44 µM. In addition, the TGI is 13.4 µM and 3.86 µM in assay [7]; 27.2 µM and 5 µM in assay [8]; 18.3 µM and 9.27 µM in assay [9]; 33 µM and 9.19 µM in [10]. Besides, the GI50 is 8.15 µM and 1.94 µM in assay [5]; 4.65 µM and 2.13 µM in assay [6]; 10.7 µM and 2.02 µM in assay [8]; 18.6 µM and 3.08 µM in assay [10].

Take `ClCCOCCn1cnc2c(Cl)nc(Cl)nc21`: the GI50 in [1] is 5.57 µM; in [2], 14.7 µM; in assay [3] it was 4.08 µM; in assay [4], 10.9 µM; in [5], 12.1 µM; in assay [6], 4.68 µM. For the same compound, the GI50 was 21.6 µM in [7], 16.2 µM in [9] and 18.5 µM in [10]. Also, the TGI is 19.2 µM in assay [1]; 28.2 µM in [2]; more than 100 µM in assay [3]; 24.1 µM in assay [4]; 25.8 µM in assay [5]; 15.4 µM in assay [6]. For the same compound, the TGI was found to be 61.9 µM in assay [7], 31.8 µM in assay [9] and 60.6 µM in [10].

In the case of `CC(C)Cc1ccc(C(C)/C=C2\CCC(CN(C)C)C2=O)cc1` (stereo not drawn), the TGI in [1] stood at 45.8 µM; in assay [2], 31.1 µM; in assay [3], 26.7 µM; in assay [4] it was 19.6 µM; in assay [5], 30.4 µM; in assay [6], 26.5 µM. For the same compound, the TGI was 69.5 µM in assay [7], 28.6 µM in assay [8], 20.5 µM in assay [9] and 18.9 µM in assay [10].

Regarding `CC(=O)NC1C(O[C@H]2C[C@H]3[C@@H]4CC=C5C[C@@H](O)CC[C@]5(C)[C@H]4CC[C@]3(C)[C@H]2[C@H](C)C(=O)CCC(C)C)OCC(O)C1O` (stereo partly drawn), the GI50 in [1] is 1.71 µM; in assay [2], 0.776 µM; in assay [4] it was 2.06 µM; in assay [5], 0.568 µM; in assay [6] it was 5.2 µM; in [7], 5.45 µM. The GI50 in assay [8] is 1.35 µM; in assay [9], 8.58 µM; in assay [10], 13.9 µM. For the same compound, the TGI turned out to be 6.1 µM in assay [1]; 6.96 µM in [2]; 8.73 µM in assay [4]; 2.33 µM in assay [5]; 34 µM in assay [6]; 15.3 µM in [7]. Moreover, the results for the TGI in [8], in [9] and in [10] were 4.11 µM, 26.6 µM and more than 42.5 µM, respectively.

With `[O]=[V]([OH])([OH])[OH]`, the GI50 is more than 100 µM in [1]; more than 100 µM in assay [2]; 79.2 µM in assay [4]; more than 100 µM in assay [5]; more than 100 µM in assay [6]; more than 100 µM in assay [7]. Further, the GI50 in assay [8], in assay [9] and in [10] was more than 100 µM in each case. In addition, the TGI in assay [1], in assay [2], in assay [4], in assay [5], in assay [6] and in assay [7] was more than 100 µM throughout. In addition, the TGI in [8], in assay [9] and in assay [10] was more than 100 µM throughout.

On to `COc1cc(-c2nccc3[nH]c(-c4ccc5cc[nH]c5c4)nc23)cc(OC)c1OC`, for which the GI50 was less than 0.01 µM in assay [1]; less than 0.01 µM in assay [2]; less than 0.01 µM in assay [3]; less than 0.01 µM in assay [5]; 0.0113 µM in [7]; less than 0.01 µM in assay [8]. The results for the GI50 in assay [9] and in assay [10] were less than 0.01 µM and 1.13 µM, respectively. In addition, the TGI in assay [1] is 1.04 µM; in [2], 2.71 µM; in assay [3], less than 0.01 µM; in assay [5] it was less than 0.01 µM; in assay [7] it was 1.77 µM; in assay [8], 3.06 µM. Also, the TGI came to 9.93 µM in assay [9] and 7.88 µM in assay [10].

On to `CCc1ccc(Nc2cc(C)c3ccc(O)cc3n2)cc1`, for which the GI50 is 4.92 µM in [1]; 4.48 µM in assay [2]; 3.32 µM in assay [3]; 6.94 µM in assay [4]; 5.74 µM in assay [5]; 11.7 µM in assay [6]. The values for the GI50 in assay [8], in assay [9] and in assay [10] were 9.97 µM, 6.24 µM and 14.1 µM, respectively. The TGI is 22 µM in [1]; 16.3 µM in assay [2]; 12.5 µM in assay [3]; 20.3 µM in assay [4]; 19.1 µM in assay [5]; 27.8 µM in assay [6]. Further, the TGI in [8] turned out to be 23.6 µM; in assay [9], 23.5 µM; in assay [10], 27.8 µM.

Take `COc1ccccc1CNCCN1C(=O)c2ccc3c4c(ccc(c24)C1=O)C(=O)N(CCNCc1ccccc1OC)C3=O`: the GI50 in assay [1] was 0.208 µM; in assay [2] it was 0.502 µM; in assay [3] it was 0.265 µM; in assay [5], 0.553 µM; in assay [6], 0.207 µM; in assay [7] it was 0.204 µM. Moreover, the GI50 in [8] is 0.712 µM; in assay [9], 0.248 µM; in [10], 0.263 µM. Besides, the TGI in [1] was 0.458 µM; in [2], 1.64 µM; in [3] it was 0.607 µM; in assay [5], 1.06 µM; in assay [6] it was 0.676 µM; in assay [7], 0.47 µM. Besides, the TGI in assay [8] was 2.24 µM; in assay [9], 0.701 µM; in [10], 0.735 µM.

As for `C=C(CN1CCc2[nH]c3ccc(F)cc3c2C1)c1ccc(C(=O)Nc2ccccc2N)cc1`, the GI50 in [1] is 3.98 µM; in assay [2], 1.5 µM; in assay [4] it was 1.6 µM; in [5], 0.38 µM; in assay [6], 2.08 µM; in assay [7] it was 1.17 µM. For the same compound, the GI50 in assay [8] is 1.07 µM; in assay [9], 3.82 µM; in assay [10] it was 2.58 µM. Moreover, the TGI in [1] was found to be 17.2 µM; in assay [2], 5.67 µM; in [4] it was 4.07 µM; in assay [5], 2.32 µM; in [6], 6.84 µM; in [7], 9.17 µM. Further, the TGI in assay [8] was 8.14 µM; in assay [9], 14 µM; in assay [10], 16.2 µM.

With `CC(C)C[C@@H]1NC(=O)[C@@H]2CCCN2C(=O)[C@@H]2CCCN2C(=O)[C@H](CC(C)C)NC(=O)[C@H](CO)NC(=O)[C@H](CCCCN)NC(=O)[C@H]([C@H](C)O)NC(=O)[C@@H]2CSSC[C@@H](NC1=O)C(=O)N[C@@H](Cc1ccccc1)C(=O)N1CCC[C@H]1C(=O)N[C@@H](CC(=O)O)C(=O)NCC(=O)N[C@@H](CCCN=C(N)N)C(=O)N2` (cyclo(C[aThr]KSLPPL[dC]FPDGR); disulfide 1-9), the GI50 in [1], in assay [2], in [4], in assay [5], in [6] and in [7] was more than 50 µM throughout. In addition, the GI50 in assay [8], in assay [9] and in [10] was more than 50 µM in each case. Further, the TGI in [1], in assay [2], in [4], in assay [5], in assay [6] and in assay [7] was more than 50 µM in each case. Besides, the TGI in assay [8], in [9] and in assay [10] was more than 50 µM each time.

`CNCc1ccc(-c2cc(-c3nc(-c4ccc(S(=O)(=O)C(C)C)cc4)cnc3N)on2)cc1`: the GI50 in assay [1] is 0.322 µM; in assay [2] it was 2.04 µM; in [3], 1.35 µM; in assay [4] it was 1.35 µM; in [5], 0.502 µM; in assay [6], 2.93 µM. For the same compound, the GI50 in [8] is 2 µM; in assay [9] it was 8.58 µM; in [10], 10.2 µM. Besides, the TGI in assay [1] is 1.6 µM; in assay [2], 30.4 µM; in [3], 10.6 µM; in [4], 2.79 µM; in [5] it was 1.88 µM; in [6], 10.6 µM. Moreover, the TGI in assay [8] was found to be 16.4 µM; in assay [9], 33.4 µM; in [10], 22.3 µM.

In the case of `N#CC(C#N)=C/C=C(\Sc1ccc(Cl)cc1)c1ccc(F)cc1`, the GI50 in [1] is 2.31 µM; in [2], 1.16 µM; in assay [4], 0.81 µM; in assay [5] it was 0.251 µM; in assay [6], 0.31 µM; in assay [7], 8.61 µM. Besides, the GI50 in [8] is 4.15 µM; in [9], 0.986 µM; in assay [10] it was 0.857 µM. Moreover, the TGI in assay [1] is more than 100 µM; in assay [2], 6.22 µM; in assay [4] it was 2.91 µM; in assay [5], 0.872 µM; in assay [6] it was 2.6 µM; in [7], 32.3 µM. Further, the TGI is more than 63.6 µM in [8], 7.26 µM in assay [9] and 3.61 µM in assay [10].

As for `Cc1ccc(NC(=O)c2cc(S(=O)(=O)Nc3nnc(-c4ccccc4)c(-c4ccccc4)n3)c(SCc3ccccc3)cc2Cl)cc1`, the GI50 in assay [1] is 26.4 µM; in assay [2], 19.8 µM; in assay [3], 17.2 µM; in assay [4] it was 15.9 µM; in [6], 17.5 µM; in assay [7], 18.4 µM. Moreover, the GI50 in [8] was 49 µM; in assay [9] it was 18.2 µM; in assay [10], 18.4 µM. The TGI in assay [1] is more than 100 µM; in [2], 45.9 µM; in [3], 41.6 µM; in assay [4], 35 µM; in assay [6] it was 35.1 µM; in [7], 34.3 µM. Also, the TGI in [8] was more than 100 µM; in assay [9] it was 43.9 µM; in assay [10], 40.6 µM.
